We go through 1 compound from patent US20030064380A1, “Anergy-regulated molecules” (The Center For Blood Research, Inc., priority 2001, published 2003).

For this data set, the system named is D5 or primary T cells. The experiment in a line: apoptosis assays of ionomycin-stimulated T cells. Particulars: several independent assays. The format is cell-based, murine. How it is done:
Apoptosis was detected by the Tunel method using the In situ Cell Death Detection kit (Boheringer) following manufacture's instructions. Stained cells were analyzed on a FACSCAN (Beckton-Dickinson).
Of particular interest was the fact that several of the ionomycin-induced genes encoded proteins involved (or potentially involved) in protein degradation. Candidate genes in this category included caspase-3, SOCS-2 and Traf5 (FIG. 6B). Caspase-3 is an enzyme for which commercial reagents are readily available. Tests were conducted to determine whether caspase-3 was activated and functional in ionomycin-pretreated T cells. […] Further work will be necessary to establish whether proteolysis occurs in specific intracellular compartments relevant to TCR signal transduction or whether other signaling proteins are substrates for proteolysis in anergic cells.

`C[C@H](CCC(=O)O)C[C@H](C)C[C@H](C)C(=O)/C=C(\O)[C@H](C)C[C@H](C)C/C=C/[C@@H](C)[C@@H](O)[C@@H](C)[C@@H](O)C[C@@H]1CC[C@@](C)([C@H]2CC[C@@](C)([C@@H](C)O)O2)O1` [Ionomycin, ionomycin]: the apoptosis entry was “no detectable apoptosis”.
